Measurements as given in the NIST ThermoML archive (doi:10.1021/acs.jced.7b00195).
Numbers after ± are expanded uncertainties.

Conditions: Gas, Burnett expansion method

CCF [fluoroethane]
Conditions | mass density [kg/m3]
278.38 K, 201.28 kPa | 4.281 ± 0.043
278.38 K, 432.22 kPa | 9.679 ± 0.076
278.39 K, 297.17 kPa | 6.437 ± 0.056
283.26 K, 303.56 kPa | 6.463 ± 0.055
283.26 K, 442.81 kPa | 9.718 ± 0.076
283.27 K, 205.41 kPa | 4.298 ± 0.043
288.2 K, 209.64 kPa | 4.316 ± 0.043
288.21 K, 309.96 kPa | 6.489 ± 0.055
288.21 K, 452.92 kPa | 9.758 ± 0.075
293.09 K, 213.69 kPa | 4.313 ± 0.042
293.09 K, 316.32 kPa | 6.485 ± 0.055
293.1 K, 143.41 kPa | 2.868 ± 0.035
293.1 K, 462.98 kPa | 9.751 ± 0.075
298.65 K, 323.48 kPa | 6.515 ± 0.055
298.65 K, 682.94 kPa | 14.731 ± 0.11
298.66 K, 146.61 kPa | 2.881 ± 0.035
298.66 K, 218.72 kPa | 4.333 ± 0.042
298.66 K, 474.3 kPa | 9.797 ± 0.076
303.31 K, 149.42 kPa | 2.894 ± 0.034
303.31 K, 222.77 kPa | 4.351 ± 0.042
303.31 K, 329.55 kPa | 6.543 ± 0.054
303.31 K, 697.8 kPa | 14.795 ± 0.11
303.32 K, 483.63 kPa | 9.838 ± 0.076
308.96 K, 227.65 kPa | 4.351 ± 0.041
308.96 K, 336.88 kPa | 6.542 ± 0.054
308.97 K, 494.66 kPa | 9.837 ± 0.075
308.97 K, 715.6 kPa | 14.793 ± 0.11
308.98 K, 152.32 kPa | 2.893 ± 0.034
313.8 K, 155.2 kPa | 2.907 ± 0.034
313.8 K, 343.12 kPa | 6.572 ± 0.054
313.8 K, 1036.8 kPa | 22.346 ± 0.16
313.81 K, 231.58 kPa | 4.371 ± 0.041
313.81 K, 504.31 kPa | 9.882 ± 0.075
313.81 K, 730.5 kPa | 14.86 ± 0.11
318.66 K, 513.87 kPa | 9.903 ± 0.075
318.67 K, 158.08 kPa | 2.912 ± 0.033
318.67 K, 235.35 kPa | 4.379 ± 0.041
318.67 K, 349.39 kPa | 6.585 ± 0.054
318.67 K, 745.44 kPa | 14.89 ± 0.11
318.67 K, 1060.9 kPa | 22.39 ± 0.16
323.51 K, 355.59 kPa | 6.601 ± 0.054
323.51 K, 760.32 kPa | 14.926 ± 0.11
323.51 K, 1084.6 kPa | 22.444 ± 0.16
323.52 K, 160.85 kPa | 2.919 ± 0.033
323.52 K, 239.62 kPa | 4.39 ± 0.041
323.52 K, 523.39 kPa | 9.926 ± 0.075
328.42 K, 243.93 kPa | 4.403 ± 0.04
328.42 K, 532.98 kPa | 9.955 ± 0.075
328.42 K, 775.13 kPa | 14.969 ± 0.11
328.42 K, 1108.3 kPa | 22.509 ± 0.16
328.42 K, 1539.5 kPa | 33.847 ± 0.24
328.43 K, 163.8 kPa | 2.928 ± 0.033
328.43 K, 361.91 kPa | 6.62 ± 0.054
333.29 K, 541.96 kPa | 9.995 ± 0.075
333.3 K, 248.18 kPa | 4.42 ± 0.04
333.3 K, 368.16 kPa | 6.647 ± 0.054
333.3 K, 789.86 kPa | 15.029 ± 0.11
333.3 K, 1131.5 kPa | 22.599 ± 0.16
333.31 K, 166.7 kPa | 2.94 ± 0.033
338.15 K, 252.41 kPa | 4.426 ± 0.04
338.15 K, 374.3 kPa | 6.655 ± 0.053
338.15 K, 551.38 kPa | 10.008 ± 0.075
338.15 K, 1614.5 kPa | 34.027 ± 0.24
338.16 K, 169.6 kPa | 2.943 ± 0.032
338.16 K, 804.44 kPa | 15.048 ± 0.11
338.16 K, 1154.5 kPa | 22.629 ± 0.16
343.01 K, 256.69 kPa | 4.428 ± 0.04
343.01 K, 380.56 kPa | 6.659 ± 0.053
343.01 K, 818.91 kPa | 15.056 ± 0.11
343.02 K, 560.82 kPa | 10.013 ± 0.075
343.02 K, 1177.4 kPa | 22.64 ± 0.16
343.02 K, 1651.3 kPa | 34.043 ± 0.24
343.02 K, 2227.5 kPa | 51.191 ± 0.36
343.03 K, 172.53 kPa | 2.945 ± 0.032
347.85 K, 175.51 kPa | 2.953 ± 0.032
347.85 K, 570.22 kPa | 10.041 ± 0.075
347.85 K, 833.34 kPa | 15.099 ± 0.11
347.85 K, 1687.6 kPa | 34.14 ± 0.24
347.85 K, 2287.3 kPa | 51.336 ± 0.36
347.86 K, 260.96 kPa | 4.441 ± 0.04
347.86 K, 386.83 kPa | 6.677 ± 0.053
347.86 K, 1200 kPa | 22.704 ± 0.16
352.74 K, 265.25 kPa | 4.438 ± 0.039
352.74 K, 393.24 kPa | 6.674 ± 0.053
352.74 K, 579.94 kPa | 10.036 ± 0.075
352.74 K, 1724 kPa | 34.121 ± 0.24
352.74 K, 2347.1 kPa | 51.308 ± 0.36
352.74 K, 3018.7 kPa | 77.15 ± 0.54
352.75 K, 178.77 kPa | 2.951 ± 0.032
352.75 K, 847.82 kPa | 15.09 ± 0.11
352.75 K, 1222.3 kPa | 22.691 ± 0.16
358.61 K, 248.43 kPa | 4.077 ± 0.037
358.61 K, 544.42 kPa | 9.219 ± 0.069
358.61 K, 1159 kPa | 20.845 ± 0.15
358.61 K, 1648.3 kPa | 31.345 ± 0.22
358.61 K, 2274.6 kPa | 47.133 ± 0.33
358.62 K, 368.4 kPa | 6.131 ± 0.049
358.62 K, 799.33 kPa | 13.862 ± 0.1
363.36 K, 252.39 kPa | 4.076 ± 0.037
363.36 K, 553.08 kPa | 9.217 ± 0.069
363.36 K, 2325.7 kPa | 47.122 ± 0.33
363.36 K, 3082.3 kPa | 70.859 ± 0.5
363.37 K, 374.25 kPa | 6.129 ± 0.049
363.37 K, 811.8 kPa | 13.859 ± 0.1
363.37 K, 1178.9 kPa | 20.84 ± 0.15
363.37 K, 1680 kPa | 31.337 ± 0.22
368.26 K, 256.54 kPa | 4.087 ± 0.037
368.26 K, 380.26 kPa | 6.145 ± 0.049
368.26 K, 561.93 kPa | 9.24 ± 0.069
368.26 K, 825.1 kPa | 13.895 ± 0.1
368.26 K, 1199.4 kPa | 20.894 ± 0.15
368.26 K, 1712.2 kPa | 31.418 ± 0.22
368.26 K, 2378.2 kPa | 47.243 ± 0.33
368.27 K, 3165.9 kPa | 71.038 ± 0.5
373.13 K, 838.52 kPa | 13.867 ± 0.1
373.14 K, 260.73 kPa | 4.078 ± 0.037
373.14 K, 386.27 kPa | 6.133 ± 0.049
373.14 K, 1219.8 kPa | 20.851 ± 0.15
373.14 K, 1744.1 kPa | 31.354 ± 0.22
373.14 K, 2430.1 kPa | 47.146 ± 0.33
373.14 K, 3250.9 kPa | 70.894 ± 0.5
373.14 K, 4091.8 kPa | 106.604 ± 0.75
373.15 K, 570.74 kPa | 9.221 ± 0.069
378.01 K, 264.55 kPa | 4.087 ± 0.036
378.01 K, 391.92 kPa | 6.145 ± 0.049
378.01 K, 851.98 kPa | 13.896 ± 0.1
378.01 K, 1240 kPa | 20.895 ± 0.15
378.01 K, 1776.1 kPa | 31.42 ± 0.22
378.01 K, 2481.6 kPa | 47.245 ± 0.33
378.01 K, 3335.4 kPa | 71.042 ± 0.5
378.02 K, 579.55 kPa | 9.241 ± 0.069
378.02 K, 4235.2 kPa | 106.825 ± 0.75
